Results as given in publication PMC5382265, “Macrocycle peptides delineate locked-open inhibition mechanism for microorganism phosphoglycerate mutases” (Nature Communications, 2017).
Like-named read-outs stand apart in the source and are kept apart here. Positions of bridges follow the written chain, without caps; N, C: chain ends. Non-standard residues stand in square brackets, D forms with d. Residues, ends and D or L forms follow the SMILES beside them.

Assays:
B. malayi iPGM = B. malayi iPGM (Brugia malayi, UniProt Q4VWF8); experiment: biochemical
E. coli iPGM [1] = biological target: T1, E. coli iPGM (Escherichia coli, UniProt P37689); experiment: biochemical
C. elegans iPGM = biological target: T2, C. elegans iPGM (Caenorhabditis elegans, UniProt G5EFZ1); experiment: PGM enzyme-coupled bioluminescent end point assay (Kinase-Glo Plus); type: biochemical
T2 sequence (G5EFZ1 1-539): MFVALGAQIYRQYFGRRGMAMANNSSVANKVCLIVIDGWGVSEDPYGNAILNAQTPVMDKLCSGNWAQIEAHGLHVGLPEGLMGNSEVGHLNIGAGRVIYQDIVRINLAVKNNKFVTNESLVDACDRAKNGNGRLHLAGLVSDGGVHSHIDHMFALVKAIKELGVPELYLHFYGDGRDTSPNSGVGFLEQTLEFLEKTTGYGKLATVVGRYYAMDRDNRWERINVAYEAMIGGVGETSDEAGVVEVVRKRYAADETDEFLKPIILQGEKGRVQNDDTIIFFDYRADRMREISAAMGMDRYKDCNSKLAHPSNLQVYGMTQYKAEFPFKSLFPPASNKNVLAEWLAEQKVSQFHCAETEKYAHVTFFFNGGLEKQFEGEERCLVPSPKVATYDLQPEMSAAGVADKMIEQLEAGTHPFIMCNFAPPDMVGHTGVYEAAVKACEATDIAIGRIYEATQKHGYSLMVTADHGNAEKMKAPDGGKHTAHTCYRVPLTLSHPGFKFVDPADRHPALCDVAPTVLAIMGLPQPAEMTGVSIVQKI

O. volvulus iPGM = O. volvulus iPGM (Onchocerca volvulus, UniProt I6LDA6); experiment: biochemical
E. coli iPGM [2] = biological target: T1, E. coli iPGM; experiment: biochemical; remark: listed apart in the source
H. sapiens dPGM = H. sapiens dPGM (Homo sapiens, UniProt P18669); experiment: Gradient elution moving boundary electrophoresis (GEMBE) assay; type: biochemical; conditions: 2.1 nM H. sapiens dPGM
[3] = test system: iPGM orthologues and dPGM isozymes; type: biochemical
[4] = biological target: E. coli cofactor-independent phosphoglycerate mutase (iPGM) (E. coli) (UniProt P37689)
[5] = pIC50, apparent C. elegans iPGM
[6] = pIC50, apparent O. volvulus iPGM

Chain of B. malayi iPGM (Q4VWF8 whole entry, looked up): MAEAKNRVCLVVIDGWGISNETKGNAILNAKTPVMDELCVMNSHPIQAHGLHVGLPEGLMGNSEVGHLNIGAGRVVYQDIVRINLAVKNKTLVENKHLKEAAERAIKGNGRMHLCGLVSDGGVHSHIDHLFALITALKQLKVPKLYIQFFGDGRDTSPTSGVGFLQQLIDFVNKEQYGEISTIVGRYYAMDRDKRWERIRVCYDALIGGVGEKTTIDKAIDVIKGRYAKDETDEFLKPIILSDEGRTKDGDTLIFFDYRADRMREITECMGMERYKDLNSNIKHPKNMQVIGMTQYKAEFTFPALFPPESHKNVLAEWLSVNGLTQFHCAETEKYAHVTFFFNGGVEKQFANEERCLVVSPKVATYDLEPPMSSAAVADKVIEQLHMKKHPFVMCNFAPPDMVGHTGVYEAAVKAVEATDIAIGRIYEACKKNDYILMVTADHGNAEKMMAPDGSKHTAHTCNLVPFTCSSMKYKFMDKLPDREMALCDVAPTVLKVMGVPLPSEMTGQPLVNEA
T1 sequence (P37689 whole entry, looked up): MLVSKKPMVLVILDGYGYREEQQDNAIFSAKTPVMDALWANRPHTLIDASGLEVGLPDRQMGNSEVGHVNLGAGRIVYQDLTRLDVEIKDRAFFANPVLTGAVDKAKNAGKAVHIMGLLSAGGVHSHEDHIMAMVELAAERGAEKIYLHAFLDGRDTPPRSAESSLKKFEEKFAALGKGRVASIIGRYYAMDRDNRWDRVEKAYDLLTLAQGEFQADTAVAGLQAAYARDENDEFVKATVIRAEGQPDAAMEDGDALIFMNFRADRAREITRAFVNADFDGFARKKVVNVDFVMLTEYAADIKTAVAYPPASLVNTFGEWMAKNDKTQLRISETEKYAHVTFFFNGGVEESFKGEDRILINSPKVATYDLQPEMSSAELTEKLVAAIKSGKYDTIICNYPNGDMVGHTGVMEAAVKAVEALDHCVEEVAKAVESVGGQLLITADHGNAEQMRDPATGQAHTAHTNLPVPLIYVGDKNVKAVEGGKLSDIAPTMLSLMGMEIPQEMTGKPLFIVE
Chain of O. volvulus iPGM (I6LDA6 whole entry, looked up): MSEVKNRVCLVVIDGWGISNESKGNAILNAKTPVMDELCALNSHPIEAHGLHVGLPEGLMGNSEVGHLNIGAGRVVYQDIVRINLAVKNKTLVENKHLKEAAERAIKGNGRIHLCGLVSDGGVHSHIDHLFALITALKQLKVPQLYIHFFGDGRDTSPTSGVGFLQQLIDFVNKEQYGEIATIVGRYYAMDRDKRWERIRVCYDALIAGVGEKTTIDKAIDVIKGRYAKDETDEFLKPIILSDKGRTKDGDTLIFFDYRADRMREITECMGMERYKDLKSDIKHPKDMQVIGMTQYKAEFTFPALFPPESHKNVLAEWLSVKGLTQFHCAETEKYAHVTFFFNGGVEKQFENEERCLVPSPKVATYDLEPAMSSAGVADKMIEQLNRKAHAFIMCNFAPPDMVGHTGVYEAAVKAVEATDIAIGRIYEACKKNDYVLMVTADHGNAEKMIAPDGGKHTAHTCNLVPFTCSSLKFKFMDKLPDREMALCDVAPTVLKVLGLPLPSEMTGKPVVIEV
Chain of H. sapiens dPGM (P18669 whole entry): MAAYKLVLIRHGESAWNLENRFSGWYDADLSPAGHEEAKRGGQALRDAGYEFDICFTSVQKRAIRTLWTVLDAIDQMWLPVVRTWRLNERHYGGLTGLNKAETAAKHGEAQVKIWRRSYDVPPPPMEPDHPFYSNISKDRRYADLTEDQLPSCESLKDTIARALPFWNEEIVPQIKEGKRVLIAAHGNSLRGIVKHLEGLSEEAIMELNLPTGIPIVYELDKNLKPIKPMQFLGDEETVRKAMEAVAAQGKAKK
Chain of E. coli cofactor-independent phosphoglycerate mutase (iPGM) (E. coli) (P37689 whole entry): as the sequence (P37689 whole entry, looked up) above

Row | Compound | IC50 (B. malayi iPGM; pIC50, apparent B. malayi iPGM) [µM] | IC50 (E. coli iPGM [1]; pIC50, apparent E. coli iPGM) [µM] | IC50 (C. elegans iPGM; [5]) [µM] | IC50 (B. malayi iPGM; pIC50 B. malayi iPGM) [µM] | IC50 (E. coli iPGM [1]; pIC50 E. coli iPGM) [µM] | IC50 (C. elegans iPGM; pIC50 C. elegans iPGM) [µM] | IC50 (O. volvulus iPGM; pIC50 O. volvulus iPGM) [µM] | also measured
1 | CC(C)C[C@@H]1NC(=O)[C@@H](Cc2ccc(O)cc2)NC(=O)CSC[C@@H](C(=O)N[C@@H](CO)C(=O)N[C@H](C(=O)N[C@@H](CS)C(=O)NCC(N)=O)[C@@H](C)O)NC(=O)[C@H](CC(N)=O)NC(=O)[C@@H]2CCCN2C(=O)[C@H](Cc2c[nH]c3ccccc23)NC(=O)[C@H](CC(=O)O)NC1=O [Bm-5] ({CH2CO}-[dY]LDWPNCSTCG-NH2; thioether N-7) | 0.692 | 2.88 | 2.51 |  |  |  |  | IC50 (O. volvulus iPGM; [6]): 1.02 µM
2 | C[C@@H](O)[C@H](NC(=O)[C@H](CO)NC(=O)[C@@H]1CSCC(=O)N[C@H](Cc2ccc(O)cc2)C(=O)N2CCC[C@H]2C(=O)N[C@@H](CCC(=O)O)C(=O)N[C@@H](Cc2c[nH]c3ccccc23)C(=O)N2CCC[C@H]2C(=O)N[C@@H](CC(N)=O)C(=O)N1)C(=O)N[C@@H](CS)C(=O)NCC(N)=O [Bm-6] ({CH2CO}-[dY]PEWPNCSTCG-NH2; thioether N-7) | 0.692 | 2.82 | 2.63 |  |  |  |  | IC50 (O. volvulus iPGM; [6]): 0.832 µM
3 | CC(C)[C@@H]1NC(=O)[C@H](C)NC(=O)[C@@H](Cc2ccc(O)cc2)NC(=O)CSC[C@@H](C(=O)N[C@@H](CCCNC(=N)N)C(=O)N[C@H](C(=O)N[C@@H](CS)C(=O)NCC(N)=O)[C@@H](C)O)NC(=O)[C@H](CC(N)=O)NC(=O)[C@@H]2CCCN2C(=O)[C@H](Cc2c[nH]c3ccccc23)NC1=O [Bm-7] ({CH2CO}-[dY]AVWPNCRTCG-NH2; thioether N-7) | 5.25 | 7.59 | 7.41 |  |  |  |  | IC50 (O. volvulus iPGM; [6]): 4.27 µM
4 | CC(C)C[C@H](NC(=O)[C@H](Cc1ccc(O)cc1)NC(=O)[C@@H]1CSCC(=O)N[C@H](Cc2ccc(O)cc2)C(=O)N[C@@H](CC(=O)O)C(=O)N[C@@H](Cc2ccc(O)cc2)C(=O)N2CCC[C@H]2C(=O)NCC(=O)N[C@@H](CC(=O)O)C(=O)N[C@@H](Cc2c[nH]cn2)C(=O)N1)C(=O)N[C@@H](Cc1ccc(O)cc1)C(=O)NCC(=O)N[C@H](C(=O)N[C@@H](CS)C(=O)NCC(N)=O)[C@@H](C)O [Ce-1] | 0.012 | 0.00417 | 0.00398 |  |  |  |  | IC50 (O. volvulus iPGM; pIC50, M O. volvulus iPGM): 0.0245 µM
5 | CC(C)C[C@H](NC(=O)[C@H](Cc1ccc(O)cc1)NC(=O)[C@@H]1CSCC(=O)N[C@H](Cc2ccc(O)cc2)C(=O)N[C@@H](CC(=O)O)C(=O)N[C@@H](Cc2ccc(O)cc2)C(=O)N2CCC[C@H]2C(=O)NCC(=O)N[C@@H](CC(=O)O)C(=O)N[C@@H](Cc2ccc(O)cc2)C(=O)N1)C(=O)N[C@@H](Cc1ccc(O)cc1)C(=O)NCC(=O)N[C@H](C(=O)N[C@@H](CO)C(=O)NCC(N)=O)[C@@H](C)O [Ce-2S] |  |  |  | 0.525 | 0.01 | 0.00832 | 1.02 | IC50 (B. malayi iPGM; pIC50, M B. malayi iPGM): 0.407 µM; IC50 (E. coli iPGM [1]; IC50): ~0.01 µM; IC50 (C. elegans iPGM): ~0.01 µM; IC50 (C. elegans iPGM; pIC50, M C. elegans iPGM): 0.012 µM; IC50 (O. volvulus iPGM; pIC50, M O. volvulus iPGM): 0.447 µM
6 | CC(C)C[C@H](NC(=O)[C@H](Cc1ccc(O)cc1)NC(=O)[C@@H]1CSCC(=O)N[C@H](Cc2ccc(O)cc2)C(=O)N[C@@H](CC(=O)O)C(=O)N[C@@H](Cc2ccc(O)cc2)C(=O)N2CCC[C@H]2C(=O)NCC(=O)N[C@@H](CC(=O)O)C(=O)N[C@@H](Cc2ccc(O)cc2)C(=O)N1)C(=O)N[C@@H](Cc1ccc(O)cc1)C(=O)NCC(=O)N[C@H](C(=O)N[C@@H](CS)C(=O)NCC(N)=O)[C@@H](C)O [Ce-2] |  | 0.00166 | 0.00224 |  | 0.00055 | 0.000251 |  | IC50 (E. coli iPGM [2]): 0.00324 µM; pIC50 from the GEMBE assay (H. sapiens dPGM): no apparent activity
7 | CC(C)C[C@H](NC(=O)[C@H](Cc1ccc(O)cc1)NC(=O)[C@@H]1CSCC(=O)N[C@H](Cc2ccc(O)cc2)C(=O)N[C@@H](CC(=O)O)C(=O)N[C@@H](Cc2ccc(O)cc2)C(=O)N2CCC[C@H]2C(=O)NCC(=O)N[C@@H](CC(=O)O)C(=O)N[C@@H](Cc2ccc(O)cc2)C(=O)N1)C(=O)N[C@@H](Cc1ccc(O)cc1)C(=O)NCC(=O)N[C@H](C(=O)N[C@@H](CS)C(N)=O)[C@@H](C)O [Ce-2a] |  |  |  | 0.000324 | 0.000263 | 0.000174 | 0.000209 | IC50 (B. malayi iPGM; pIC50, M B. malayi iPGM): 0.00851 µM; IC50 (E. coli iPGM [1]; pIC50, M E. coli iPGM): 0.00309 µM; IC50 (C. elegans iPGM; pIC50, M C. elegans iPGM): 0.00407 µM; IC50 (O. volvulus iPGM; pIC50, M O. volvulus iPGM): 0.049 µM
8 | CC(C)C[C@H](NC(=O)[C@H](Cc1ccc(O)cc1)NC(=O)[C@@H]1CSCC(=O)N[C@H](Cc2ccc(O)cc2)C(=O)N[C@@H](CC(=O)O)C(=O)N[C@@H](Cc2ccc(O)cc2)C(=O)N2CCC[C@H]2C(=O)NCC(=O)N[C@@H](CC(=O)O)C(=O)N[C@@H](Cc2ccc(O)cc2)C(=O)N1)C(=O)N[C@@H](Cc1ccc(O)cc1)C(=O)NCC(=O)N[C@H](C(N)=O)[C@@H](C)O [Ce-2b] |  |  |  | 0.692 | 0.0105 | 0.0158 | 2.45 | 
9 | CC(C)C[C@H](NC(=O)[C@H](Cc1ccc(O)cc1)NC(=O)[C@@H]1CSCC(=O)N[C@H](Cc2ccc(O)cc2)C(=O)N[C@@H](CC(=O)O)C(=O)N[C@@H](Cc2ccc(O)cc2)C(=O)N2CCC[C@H]2C(=O)NCC(=O)N[C@@H](CC(=O)O)C(=O)N[C@@H](Cc2ccc(O)cc2)C(=O)N1)C(=O)N[C@@H](Cc1ccc(O)cc1)C(=O)NCC(N)=O [Ce-2c] |  |  |  | 1.17 | 0.0105 | 0.0229 | 3.89 | 
10 | CC(C)C[C@H](NC(=O)[C@H](Cc1ccc(O)cc1)NC(=O)[C@@H]1CSCC(=O)N[C@H](Cc2ccc(O)cc2)C(=O)N[C@@H](CC(=O)O)C(=O)N[C@@H](Cc2ccc(O)cc2)C(=O)N2CCC[C@H]2C(=O)NCC(=O)N[C@@H](CC(=O)O)C(=O)N[C@@H](Cc2ccc(O)cc2)C(=O)N1)C(N)=O [Ce-2e] ({CH2CO}-[dY]DYPGDYCYL-NH2; thioether N-8) |  |  |  | 2.95 | 0.0537 | 0.0692 |  | potency decrease [3]: ~100 fold
11 | Ce-2S (Ce-2 with Cys14Ser) (peptide) |  |  |  |  |  |  |  | IC50 of inhibition of PGM activity, enzyme-coupled bioluminescent assay [4]: 0.01 µM
12 | ^Ac-DYDYPGDYSYLY-NH2 [Ce-L2d, linear form of Ce-2d] |  |  |  |  |  |  |  | inhibitory activity on the PGM panel, in words [3]: completely inactive on all iPGMs
